Data from patent US12606556B2, “TYK-2 inhibitor” (BEIGENE, LTD., priority 2020, dated 2026).

Experiments:
[1] = target: T1, JAK1-JH2 protein (aa 561-860, in-house) (Homo sapiens, UniProt P23458); test: JAK1-JH2 biochemical assay (HTRF, blocking of JAK1-JH2 protein with its probe); type: binding; conditions: 1.17 nM recombinant JAK1-JH2, Probe 2
T1 construct: JAK1-JH2 protein (aa 561-860, in-house); made in house
Protocol: Assay B: JAK1-JH2 Biochemical Assay
Compounds disclosed herein were tested for blocking of JAK1-JH2 protein (aa 561-860, in-house) with its probe in an assay based on Homogeneous Time Resolved Fluorescence. Compound dilution is done according to the following protocol: (1) Prepare 500× compounds solution in DMSO from 500 uM by 5-fold dilution, total 10 doses were included; (2) Prepare 10× compounds solution in an assay buffer containing 20 mM HEPES, pH 7.5, 10 mM MgCl2, 0.005% BSA, 2 mM DTT, 0.015% Brij-35 by transferring 1 μl serial 500× stock solution into 49 μl assay buffer. 4 μL of 1.17 nM recombinant JAK1-JH2 protein was pre-incubated with 1 μl of 10×serial dilution of compounds at room temperature for 0.5 hour. […] The HTRF signals (ex337 nm, em620 nm/665 nm) were read on BMG PHERAstar FS instrument. The inhibition percentage of JAK1 interaction with its probe in presence of increasing concentrations of compounds was calculated based on the ratio of fluorescence at 615 nm to that at 665 nm. The IC50 for each compound was derived from fitting the data to the four-parameter logistic equation by Dotmatics.

[2] = system: JAK1/p-STAT3(Tyr705) activated by IL-6 in TF-1 cell line; test: IL-6-JAK1/p-STAT3(Tyr705) inhibition cellular assay; type: cell-based; conditions: Homo sapiens, 0.5 h; TF-1 cells, IL-6 50 ng/ml, 30 min; read-out: Cellular assay pSTAT3/IL-6 IC50
From the text: Assay D: IL-6-JAK1/p-STAT3(Tyr705) Inhibition IC50 Cellular Assay
To evaluate the inhibition effect of compounds disclosed herein on JAK1/p-STAT3(Tyr705) activated by IL-6 in TF-1 cell line, TF-1 cells were collected and washed 3 times by DPBS and resuspended in RPMI-1640 (phenol red free, Gibco, Cat #11835-030) with 0.1% FBS (Gibco, Cat #10099, Lot #1891605), without GM-CSF(R&D systems,Cat #215-GM-050), starved overnight. Cells were collected and resuspended in 1640 medium (phenol red free, Gibco, Cat #11835-030) with 0.1% BSA, and 12.5 μl/10×10^4/well cell suspension were seeded to the 96-well plate (Corning, Cat #3799). Then cells were treated with compounds diluted in 0.2% DMSO 1640 medium, at 37° C., 1 h. Dilution is done according to the following protocol: (1) make 500× compounds solution in DMSO from 5 mM by 4-fold dilution, total 8 doses were included; (3) make 2× compounds solution in assay medium by transferring 0.5 μl serial 500× stock solution into 125 μl assay medium; (4) 15 μl of 2× solution is added to cells and incubate at 37° C. for 1 h, the final compound conc. is 10000,2500,625,156.25,39,9.8,2.4 and 0.61 nM, respectively. After 1 h, cells were treated with 2.5 μl medium containing IL-6 at 37° C. (R&D systems, Cat #206-IL-010, final conc.50 ng/ml), 30 min. Following cells were lysed with 10 μl lysis buffer at RT, shaking on shaker for 1 h. 16 μL of cell lysate were transferred to a PE 384-well HTRF detection plate, and 4 μL of pre-mixed HTRF antibodies were added to each well. Covered the plate with a plate sealer, span 1000 rpm for 1 min, mix, Incubated overnight at room temperature. Read on BMG PheraStar with HTRF protocol (337 nm-665 nm-620 nm). IC 50 values were calculated by fitting dependent data to the four-parameter logistic model using dotmatics software. The assay was performed by using HTRF Phospho-STAT3(Tyr705) Cellular Assay Kit (Cisbio, Cat #62AT3PEG).

[3] = system: JAK2, TYK2/p-STAT4 (Tyr693) activated by IL-12 in NK-92 cell line; test: IL-12-JAK2, TYK2/p-STAT4 (Tyr693) inhibition cellular assay; type: cell-based; conditions: for IC50: NK92, 0.5 h, NK-92 cells, IL-12 40 ng/ml, 30 min, read-out: Cellular assay pSTAT4/IL-12 IC50; for Cellular assay Selectivity fold (TYK2/JAK1): pSTAT4/IL-12 vs pSTAT3/IL-6 cellular IC50
From the text: Assay C: IL-12-JAK2, TYK2/p-STAT4 (Tyr693) Inhibition IC50 Cellular Assay
To evaluate the inhibition effect of compounds disclosed herein on JAK2, TYK2/p-STAT4 (Tyr693) activated by IL-12 in NK-92 cell line, NK-92 cells were collected and washed 3 times by DPBS and resuspended in MEM-α(GIBCO,Cat #12561056) with 10% FBS (Gibco, Cat #10099, Lot #1891605), without IL-2 (R&D systems,Cat #202-IL), starved overnight. Cells were collected and resuspended in 1640 medium (phenol red free, Gibco, Cat #11835-030) with 0.1% BSA, and 12.5 μl/5×10^4/well cell suspension were seeded to the 96-well plate (Corning, Cat #3799). Then cells were treated with compounds diluted in 0.2% DMSO 1640 medium, at 37° C., 1 h. Dilution is done according to the following protocol: (1) make 500× compounds solution in DMSO from 5 mM by 4-fold dilution, total 8 doses were included; (3) make 2× compounds solution in assay medium by transferring 0.5 μl serial 500× stock solution into 125 μl assay medium; (4) 15 μl of 2× serial solution is added to cells and incubate at 37° C. for 1 h, the final compound conc. is 10000,2500,625,156.25,39,9.8,2.4 and 0.61 nM, respectively. After 1 h, cells were treated with 2.5 μl medium containing IL-12 at 37° C. (R&D systems, Cat #219-IL-005, final conc.40 ng/ml), 30 min. Following cells were lysed with 7.5 μl lysis buffer at RT, shaking on shaker for 1 h. 10 μL of cell lysate were transferred to a PE 384-well Proxiplate detection plate, and 5 μL of pre-mixed Alphascreen beads were added to each well. Covered the plate with a plate sealer, span 1000 rpm for 1 min, mix, Incubated overnight at room temperature. Read on BMG PheraStar with Alphascreen protocol. IC 50 values were calculated by fitting dependent data to the four-parameter logistic model using dotmatics software. The assay was performed by using AlphaLISA SureFire Ultra p-STAT4 (Tyr693) Assay Kit—High Volume (PE, Cat #ALSU-PST4-A-HV).

[4] = target: T2, TYK2-JH2 (aa 575-869, in-house) protein (Homo sapiens, UniProt P29597); test: TYK2-JH2 biochemical assay (HTRF, blocking of TYK2-JH2 protein with its probe); type: binding; conditions: for IC50: HTRF, 0.2 nM recombinant TYK2-JH2, Probe 1; for Biochemical assay Selectivity fold (TYK2/JAK1): TYK2-JH2 vs JAK1-JH2 biochemical IC50
T2 construct: TYK2-JH2 (aa 575-869, in-house) protein; made in house
Protocol: Assay A: TYK2-JH2 Biochemical Assay
Compounds disclosed herein were tested for blocking of TYK2-JH2 (aa 575-869, in-house) protein with its probe in an assay based on Homogeneous Time Resolved Fluorescence.
Compound dilution is done according to the following protocol: (1) Prepare 500× compounds solution in DMSO from 500 uM by 5-fold dilution, total 10 doses were included; (2) Prepare 10× compounds solution in an assay buffer containing 20 mM HEPES, pH 7.5, 10 mM MgCl2, 0.005% BSA, 2 mM DTT, 0.015% Brij-35 by transferring 1 μl serial 500× stock solution into 49 μl assay buffer. 4 μl of 0.2 nM recombinant TYK2-JH2 protein was pre-incubated with 1 μl of 10×serial dilution of compounds at room temperature for 0.5 hour. Then 5 μl of 10 nM in-house Probe 1 (6-((3,5-dimethylphenyl)amino)-8-((4,26-dioxo-30-((3aS,4S,6aR)-2-oxohexahydro-1H-thieno[3,4-d]imidazol-4-yl)-7,10,13,16,19,22-hexaoxa-3,25-diazatriacontyl)amino)imidazo[1,2-b]pyridazine-3-carboxamide, KD=10 nM), 5 μl Mab Anti-6His Tb cryptate Gold (Cat: 61HI2TLB, Cisbio Bioassays) and Streptavidin-XL665(Cat: 610SAXLB, Cisobio Bioassays) mixture were added to plate and further incubated at room temperature for 1 hour. The HTRF signals (ex337 nm, em620 nm/665 nm) were read on BMG PHERAstar FS instrument. The inhibition percentage of TYK2 interaction with its probe in presence of increasing concentrations of compounds was calculated based on the ratio of fluorescence at […]. The IC50 for each compound was derived from fitting the data to the four-parameter logistic equation by Dotmatics.

T2 sequence (P29597 575-869): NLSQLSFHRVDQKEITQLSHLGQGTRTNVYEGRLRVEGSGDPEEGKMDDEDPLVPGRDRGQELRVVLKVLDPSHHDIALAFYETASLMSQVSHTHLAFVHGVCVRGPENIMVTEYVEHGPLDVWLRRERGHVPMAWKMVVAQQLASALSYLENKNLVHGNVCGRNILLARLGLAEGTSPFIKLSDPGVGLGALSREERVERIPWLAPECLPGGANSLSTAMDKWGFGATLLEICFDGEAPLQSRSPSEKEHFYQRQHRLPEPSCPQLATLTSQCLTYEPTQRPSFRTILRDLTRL
T1 sequence (P23458 561-860): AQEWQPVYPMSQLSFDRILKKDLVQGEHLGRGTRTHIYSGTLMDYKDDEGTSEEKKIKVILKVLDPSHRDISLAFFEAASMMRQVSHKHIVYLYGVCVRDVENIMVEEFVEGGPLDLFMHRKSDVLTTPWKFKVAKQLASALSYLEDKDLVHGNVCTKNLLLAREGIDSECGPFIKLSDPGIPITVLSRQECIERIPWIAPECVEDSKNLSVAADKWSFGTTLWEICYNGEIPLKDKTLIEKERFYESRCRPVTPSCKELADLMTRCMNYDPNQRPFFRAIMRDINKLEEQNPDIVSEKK

SMILES	IC50 [1]	IC50 [2]	IC50 [3]	Cellular assay Selectivity fold (TYK2/JAK1) [3]	IC50 [4]	Biochemical assay Selectivity fold (TYK2/JAK1) [4]
CNC(=O)c1nnc(NC(=O)C2CC2)cc1Nc1nc2ccc(OC3CN(C(C)=O)C3)cn2n1 [Example C4, 4-((6-((1-acetylazetidin-3-yl)oxy)-[1,2,4]triazolo [1,5-a]pyridin-2-yl)amino)-6-(cyclopro-panecarbox-amido)-N-methyl-pyridazine-3-carboxamide]	1.2 nM	> 10000 nM	309 nM	>32 fold	0.08 nM	15 fold
CNC(=O)c1nnc(NC(=O)C2CC2)cc1Nc1nc2ccc(OC3CN(C(=O)CC#N)C3)cn2n1 [Example C5, 4-((6-((1-(2-cyanoacetyl)azetidin-3-yl)oxy)-[1,2,4]triazolo[1,5-a]pyridin-2-yl)amino)-6-(cyclopro-panecarbox-amido)-N-methyl-pyridazine-3-carboxamide]	1.56 nM	> 10000 nM	1320 nM	>8 fold	0.143 nM	11 fold
CNC(=O)c1nnc(NC(=O)C2CC2)cc1Nc1nc2ccc(OC3CN(C4CCOC4)C3)cn2n1 (stereo not drawn) [Example D1, 6-(cyclopropanecarboxamido)-N-methyl-4-((6-((1-(tetrahydrofuran-3-yl)azetidin-3-yl)oxy)-[1,2,4]triazolo[1,5-a]pyridin-2-yl)amino)pyridazine-3-carboxamide]	1.21 nM	> 10000 nM	68.4 nM	>146 fold	0.099 nM	12 fold
CNC(=O)c1nnc(NC(=O)C2CC2)cc1Nc1nc2ccc(N3CCC3)cn2n1 [Example E1, 4-((6-(azetidin-1-yl)-[1,2,4]triazolo[1,5-a]pyridin-2-yl)amino)-6-(cyclopropanecarboxamido)-N-methylpyridazine-3-carboxamide]	1.6 nM	6330 nM	13.3 nM	475 fold	0.047 nM	34 fold
CNC(=O)c1nnc(NC(=O)C2CC2)cc1Nc1nc2ccc(N3CC(OC)C3)cn2n1 [Example E2, 6-(cyclopropanecarboxamido)-4-((6-(3-methoxyazetidin-1-yl)-[1,2,4]triazolo[1,5-a]pyridin-2-yl)amino)-N-methylpyridazine-3-carboxamide]	1.2 nM	9800 nM	9.01 nM	1087 fold	0.047 nM	26 fold
[2H]C([2H])([2H])NC(=O)c1nnc(NC(=O)C2CC2)cc1Nc1nc2ccc(N3CCC3)cn2n1 [Example E3, 4-((6-(azetidin-1-yl)-[1,2,4]triazolo [1,5-a]pyridin-2-yl)amino)-6-(cyclopropanecarbox-amido)-N-(methyl-d3) pyridazine-3-carboxamide]	1.3 nM	4060 nM	8.9 nM	453 fold	0.038 nM	34 fold
CNC(=O)c1nnc(NC(=O)C2CC2)cc1Nc1nc2ccc(N3CC(CC(F)F)C3)cn2n1 [Example E4, 6-(cyclopropanecar-boxamido)-4-((6-(3-(2,2-difluoroethyl)azetidin-1-yl)-[1,2,4]triazolo[1,5-a]pyridin-2-yl)amino)-N-methylpyridazine-3-carboxamide]	1.5 nM	5400 nM	10 nM	540 fold	0.044 nM	34 fold
CNC(=O)c1nnc(NC(=O)C2CC2)cc1Nc1nc2ccc(N3CC(N(C)C)C3)cn2n1 [Example E5, 6-(cyclopropanecar-boxamido)-4-((6-(3-(dimethylamino)azetidin-1-yl)-[1,2,4]triazolo [1,5-a]pyridin-2-yl)amino)-N-methylpyridazine-3-carboxamide]	1.7 nM	7270 nM	16 nM	454 fold	0.064 nM	26 fold
